PubChem BioAssay AID256 (DTP/NCI, 2004)
Where “and” joins values, the source holds several entries; their conditions need not be identical. Identical values can stand only once. Inconclusive results and toxic doses are left out.

Test system: CD2F1 mice, L1210 leukemia ip, survival T/C
Assay: NCI In Vivo Anticancer Drug Screen. Data for tumor model L1210 Leukemia (intraperitoneal) in CD2F1 (CDF1) mice
Details: higher = longer survival
Procedure, shortened: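 Vehicle-treated tumor-bearing mice served as controls (C) for compound-treated mice (T). Reported figure is T divided by C.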

[1] = endpoint: mean survival time, dose: 100.0 mg/kg/injection, schedule: Q04DX003 (ip), vehicle: saline with Tween-80
[2] = endpoint: mean survival time, dose: 200.0 mg/kg/injection, schedule: Q04DX003 (ip), vehicle: saline with Tween-80
[3] = endpoint: mean survival time, dose: 400.0 mg/kg/injection, schedule: Q04DX003 (ip), vehicle: saline with Tween-80
[4] = endpoint: mean survival time, dose: 75.0 mg/kg/injection, schedule: Q01DX001 (ip), vehicle: saline
[5] = endpoint: mean survival time, dose: 25.0 mg/kg/injection, schedule: Q01DX009 (ip), vehicle: saline with Tween-80
[6] = endpoint: mean survival time, dose: 50.0 mg/kg/injection, schedule: Q01DX009 (ip), vehicle: saline with Tween-80
[7] = endpoint: mean survival time, dose: 100.0 mg/kg/injection, schedule: Q01DX009 (ip), vehicle: saline with Tween-80
[8] = endpoint: mean survival time, dose: 100.0 mg/kg/injection, schedule: Q04DX003 (ip), vehicle: saline
[9] = endpoint: mean survival time, dose: 200.0 mg/kg/injection, schedule: Q04DX003 (ip), vehicle: saline
[10] = endpoint: mean survival time, dose: 50.0 mg/kg/injection, schedule: Q04DX002 (ip), vehicle: saline with Tween-80
[11] = endpoint: mean survival time, dose: 100.0 mg/kg/injection, schedule: Q04DX002 (ip), vehicle: saline with Tween-80
[12] = endpoint: mean survival time, dose: 200.0 mg/kg/injection, schedule: Q04DX002 (ip), vehicle: saline with Tween-80
[13] = endpoint: mean survival time, dose: 200.0 mg/kg/injection, schedule: Q01DX009 (ip), vehicle: saline with Tween-80

CC(C)C(C)OC(=O)Nc1cccc(O)c1 (configuration not stated)
T/C [1]: 99 % of control | T/C [2]: 97 % of control | T/C [3]: 97 % of control

C/C(=N\NC(N)=S)c1ccc2cc3c(cc2c1)OCO3
T/C [4]: 119 % of control

O=c1oc(-c2ccccc2)nc2cc(Cl)ccc12
T/C [5]: 105 % of control | T/C [6]: 100 % of control | T/C [7]: 105 % of control

C=CCNC(N)=O
T/C [8]: 94 % of control | T/C [9]: 93 % of control

Nc1nc2c(ncn2-c2cccc(NC(=O)c3cccc(S(=O)(=O)F)c3)c2)c(=O)[nH]1
T/C [10]: 108 % of control | T/C [11]: 94 % of control | T/C [12]: 90 % of control

[Cl][Ga]([Cl])[Cl]
T/C (endpoint: mean survival time, dose: 50.0 mg/kg/injection, schedule: Q04DX003 (ip), vehicle: saline): 96 % of control | T/C (endpoint: mean survival time, dose: 100.0 mg/kg/injection, schedule: Q01DX001 (ip), vehicle: saline): 92 % of control | T/C [8]: 108 % of control | T/C (endpoint: mean survival time, dose: 200.0 mg/kg/injection, schedule: Q01DX001 (ip), vehicle: saline): 95 % of control

CN(C)C(=S)NCc1ccccc1
T/C [1]: 105 % of control | T/C [2]: 109 % of control | T/C [3]: 87 % of control

C=C1COC(O)(C2OCOC(C3CC(=O)NC(=O)C3)C2O)C1C (configuration not stated)
T/C (endpoint: median survival time, dose: 4.0 micrograms/kg/injection, schedule: Q01DX009 (ip), vehicle: water): 103 % of control | T/C (endpoint: median survival time, dose: 8.0 micrograms/kg/injection, schedule: Q01DX009 (ip), vehicle: saline): 110 % of control | T/C (endpoint: median survival time, dose: 8.0 micrograms/kg/injection, schedule: Q01DX009 (ip), vehicle: water): 118 % of control and 102 % of control | T/C (endpoint: median survival time, dose: 16.0 micrograms/kg/injection, schedule: Q01DX009 (ip), vehicle: saline): 116 % of control | T/C (endpoint: median survival time, dose: 16.0 micrograms/kg/injection, schedule: Q01DX009 (ip), vehicle: water): 116 % of control | T/C (endpoint: median survival time, dose: 32.0 micrograms/kg/injection, schedule: Q01DX009 (ip), vehicle: saline): 118 % of control

O=C(O)COc1ccc(Cl)cc1Cl (tested in a mixture with another compound)
T/C (endpoint: mean survival time, dose: 12.5 mg/kg/injection, schedule: Q01DX009 (ip), vehicle: saline with Tween-80): 89 % of control | T/C [5]: 94 % of control | T/C (endpoint: mean survival time, dose: 25.0 mg/kg/injection, schedule: Q04DX002 (ip), vehicle: saline with Tween-80): 111 % of control | T/C [6]: 87 % of control and 104 % of control | T/C [10]: 121 % of control | T/C [7]: 101 % of control | T/C [11]: 99 % of control | T/C [13]: 93 % of control | T/C [12]: 96 % of control

CCCCCCCCN1C(=O)CCC1=O
T/C [11]: 103 % of control | T/C [12]: 91 % of control

C(=N\N(c1ccccc1)c1ccccc1)/c1ccc(/C=N/N(c2ccccc2)c2ccccc2)cc1
T/C (endpoint: mean survival time, dose: 100.0 mg/kg/injection, schedule: Q04DX003 (ip), vehicle: Klucel (hydroxypropylcellulose) (HPC)): 97 % of control | T/C (endpoint: mean survival time, dose: 200.0 mg/kg/injection, schedule: Q04DX003 (ip), vehicle: Klucel (hydroxypropylcellulose) (HPC)): 95 % of control | T/C (endpoint: mean survival time, dose: 400.0 mg/kg/injection, schedule: Q04DX003 (ip), vehicle: Klucel (hydroxypropylcellulose) (HPC)): 95 % of control

COC(=O)C1CC23C=CCN4CC(C2C)C2(c5ccccc5NC12)C43 (configuration not stated)
T/C (endpoint: mean survival time, dose: 8.0 mg/kg/injection, schedule: Q01DX001 (ip), vehicle: saline): 102 % of control | T/C (endpoint: mean survival time, dose: 16.0 mg/kg/injection, schedule: Q01DX001 (ip), vehicle: saline): 96 % of control | T/C (endpoint: mean survival time, dose: 32.0 mg/kg/injection, schedule: Q01DX001 (ip), vehicle: saline): 102 % of control | T/C (endpoint: mean survival time, dose: 64.0 mg/kg/injection, schedule: Q01DX001 (ip), vehicle: saline): 101 % of control

CCOC(=O)Nc1cc(NCCc2ccccc2)c2[nH]cnc2n1
T/C (endpoint: mean survival time, dose: 100.0 mg/kg/injection, schedule: Q01DX001 (ip), vehicle: Klucel (hydroxypropylcellulose) (HPC)): 90 % of control | T/C (endpoint: mean survival time, dose: 200.0 mg/kg/injection, schedule: Q01DX001 (ip), vehicle: Klucel (hydroxypropylcellulose) (HPC)): 87 % of control | T/C (endpoint: mean survival time, dose: 400.0 mg/kg/injection, schedule: Q01DX001 (ip), vehicle: Klucel (hydroxypropylcellulose) (HPC)): 95 % of control

Nc1nc(N)c(N=O)c(N)n1
T/C (endpoint: mean survival time, dose: 100.0 mg/kg/injection, schedule: Q01DX009 (ip), vehicle: saline): 98 % of control | T/C [8]: 103 % of control | T/C (endpoint: mean survival time, dose: 200.0 mg/kg/injection, schedule: Q01DX009 (ip), vehicle: saline): 97 % of control | T/C [9]: 97 % of control | T/C (endpoint: mean survival time, dose: 400.0 mg/kg/injection, schedule: Q01DX009 (ip), vehicle: saline): 100 % of control | T/C (endpoint: mean survival time, dose: 400.0 mg/kg/injection, schedule: Q04DX003 (ip), vehicle: saline): 102 % of control

O=C(Nc1cc(Cl)c(Cl)cc1Cl)C1CC1
T/C [6]: 119 % of control | T/C [7]: 101 % of control | T/C [13]: 101 % of control

O=C(NNC1CCCCC1)c1ccccc1
T/C (endpoint: mean survival time, dose: 100.0 mg/kg/injection, schedule: Q01DX009 (ip), vehicle: acetone): 103 % of control

O=C(O)C1(C(=O)O)CCC1
T/C (endpoint: mean survival time, dose: 100.0 mg/kg/injection, schedule: Q04DX002 (ip), vehicle: saline): 92 % of control | T/C (endpoint: mean survival time, dose: 200.0 mg/kg/injection, schedule: Q04DX002 (ip), vehicle: saline): 111 % of control

CCOC(=O)/C=C/c1c[nH]c(C(=O)OCC)c1
T/C (endpoint: mean survival time, dose: 100.0 mg/kg/injection, schedule: Q04DX002 (ip), vehicle: other): 93 % of control | T/C (endpoint: mean survival time, dose: 200.0 mg/kg/injection, schedule: Q04DX002 (ip), vehicle: other): 93 % of control | T/C (endpoint: mean survival time, dose: 400.0 mg/kg/injection, schedule: Q04DX002 (ip), vehicle: other): 100 % of control

CC(=O)C1(O)Cc2c(O)c3c(c(O)c2C(OC2CC(N)C(O)C(C)O2)C1)C(=O)c1ccccc1C3=O (configuration not stated)
T/C (endpoint: mean survival time, dose: 0.03 mg/kg/injection, schedule: Q01DX009 (ip), vehicle: water): 104 % of control | T/C (endpoint: mean survival time, dose: 0.05 mg/kg/injection, schedule: Q01DX009 (ip), vehicle: water): 110 % of control | T/C (endpoint: mean survival time, dose: 0.1 mg/kg/injection, schedule: Q01DX009 (ip), vehicle: water): 117 % of control | T/C (endpoint: mean survival time, dose: 0.4 mg/kg/injection, schedule: Q01DX009 (ip), vehicle: water): 151 % of control | T/C (endpoint: mean survival time, dose: 0.8 mg/kg/injection, schedule: Q01DX009 (ip), vehicle: water): 92 % of control

CC(C)(C)N.[O]=[Cr](=[O])([OH])[OH]
T/C (endpoint: mean survival time, dose: 5.0 mg/kg/injection, schedule: Q01DX001 (ip), vehicle: saline): 104 % of control | T/C (endpoint: mean survival time, dose: 10.0 mg/kg/injection, schedule: Q01DX001 (ip), vehicle: saline): 102 % of control | T/C (endpoint: mean survival time, dose: 20.0 mg/kg/injection, schedule: Q01DX001 (ip), vehicle: saline): 96 % of control | T/C (endpoint: mean survival time, dose: 40.0 mg/kg/injection, schedule: Q01DX001 (ip), vehicle: saline): 94 % of control

O=C1CSc2nc3ccccc3n21
T/C (endpoint: mean survival time, dose: 100.0 mg/kg/injection, schedule: Q01DX009 (ip), vehicle: other): 98 % of control | T/C (endpoint: mean survival time, dose: 200.0 mg/kg/injection, schedule: Q01DX009 (ip), vehicle: other): 98 % of control | T/C (endpoint: mean survival time, dose: 400.0 mg/kg/injection, schedule: Q01DX009 (ip), vehicle: other): 105 % of control

Cc1ccc(N=C(N)NC#N)cc1C
T/C [7]: 95 % of control | T/C [13]: 97 % of control

CN(C)S(=O)(=O)c1cc(Cl)ccc1NN
T/C [1]: 98 % of control | T/C [2]: 104 % of control | T/C [3]: 104 % of control

CCCCC(=O)n1c(Cl)c(/C=N\NC(N)=S)c2ccccc21
T/C (endpoint: mean survival time, dose: 25.0 mg/kg/injection, schedule: Q04DX003 (ip), vehicle: saline with Tween-80): 101 % of control | T/C (endpoint: mean survival time, dose: 50.0 mg/kg/injection, schedule: Q04DX003 (ip), vehicle: saline with Tween-80): 101 % of control | T/C [1]: 108 % of control

CN(C)c1nc(Cl)cc2c1ncn2C1OC(CO)C(O)C1O (configuration not stated)
T/C (endpoint: mean survival time, dose: 100.0 mg/kg/injection, schedule: Q01DX005 (ip), vehicle: saline): 117 % of control

CCCCCCCCSCC(CSCCCCCCCC)(CSCCCCCCCC)CSCCCCCCCC
T/C (endpoint: mean survival time, dose: 100.0 mg/kg/injection, schedule: Q01DX001 (ip), vehicle: saline with Tween-80): 101 % of control | T/C (endpoint: mean survival time, dose: 200.0 mg/kg/injection, schedule: Q01DX001 (ip), vehicle: saline with Tween-80): 93 % of control | T/C (endpoint: mean survival time, dose: 400.0 mg/kg/injection, schedule: Q01DX001 (ip), vehicle: saline with Tween-80): 93 % of control

C=C(CC(=O)O)C(=O)O
T/C [1]: 93 % of control | T/C [2]: 98 % of control

O=[N+]([O-])c1ccc(/C=N\Nc2ccc([N+](=O)[O-])cn2)cc1
T/C (endpoint: mean survival time, dose: 50.0 mg/kg/injection, schedule: Q04DX003 (ip), vehicle: saline sonified): 96 % of control | T/C (endpoint: mean survival time, dose: 100.0 mg/kg/injection, schedule: Q04DX003 (ip), vehicle: saline sonified): 89 % of control | T/C (endpoint: mean survival time, dose: 200.0 mg/kg/injection, schedule: Q04DX003 (ip), vehicle: saline sonified): 96 % of control

CCN(CC)Cc1cc([N+](=O)[O-])ccc1O
T/C [4]: 104 % of control | T/C (endpoint: mean survival time, dose: 150.0 mg/kg/injection, schedule: Q01DX001 (ip), vehicle: saline): 100 % of control
